This is an account of results in patent publication US20240360148A1 (SUVALENT THERAPEUTICS, INC., priority 2021, published 2024).

As usually defined, the IC50 is the concentration that gives 50% inhibition.

The nature of data set [1]: Plasma protein binding, equilibrium dialysis, rat plasma. It counts as in vitro ADME. As to conditions: 5 hours at 37° C., read-out: PPB % bound Rat (converted). The protocol: (§1) The compounds of interest were evaluated for various PK parameters. Specifically CACO permeability/efflux and plasma protein binding (PPP) were determined. Stock solutions were prepared at 10 mM in DMSO for test and reference compounds. Aliquots of the stock solution were diluted to 500× of final concentration (0.5 mM) with DMSO, then further diluted upon the addition of bank PE3-buffer to 20× of final concentration (20 μM). Then test and reference compounds were prepared in plasma at 1 μM. For 0 hour incubation: 25 μL of the plasma spiked with test and reference compounds was transferred into a 96-well sample preparation plate, and then 25 μL blank PB-buffer was added. The samples were quenched by 200 μL of IS solution to prepare [Initial]0h samples. For 5 hours incubation: 100 μL of the plasma spiking with test and reference compounds was loaded on donor side, and 100 μL of blank PB-buffer were loaded on receiver side of the equilibrium dialysis device. Samples were incubated in an air-bath shaker (60 rpm) for 5 hours at 37° C. After 5 hours incubation, 25 μL of samples (from both the donor sides and receiver sides of the dialysis apparatus) was aspirated and added into new sample preparation plates, separately. 25 μL of blank PB-buffer was added to donor side samples and 25 μL of blank plasma was added to receiver side samples to balance the matrix. The samples were quenched with 200 μL of IS solution. The assay plate was shaken at the vibrator (Hangzhou Allsheng, MX100-4A) for 10 min (600 rpm) and then centrifuged at 5,594×g for 15 min (Thermo Multifuge×3R). An aliquot of the 50 μL supernatant was taken from each well and diluted by 50 μL distilled water, then analyzed by UPLC-MS/MS.

A short description of the next data set: Solubility Evaluation. It counts as physicochemical. Conditions: kinetic from dmso stock, 1 hour at RT. Here is the method:
The compounds of interest were evaluated for their solubility in various biological solutions. Specifically, aliquots (8 μL) of reference and test compound stock solutions (10 mM) were added into 792 μL of buffer (PBS, pH7.4, FaSSIF, pH 6.5, or FaSSGF, pH 1.6) respectively (Final DMSO conc.: 1%). Sample tubes were shaken for 1 hour (1000 rpm) at RT. The experiment was calibrated using 300 μM spiked solution (SS) in MeOH/CAN (4:1) by adding 6 μL of 10 mM compound stock solution in 194 μL MeOH/ACN(4:1) ranging from 60 μM to 0.02 μM. The samples were centrifuged (10 min-12000 rpm) to precipitate un-dissolved particles. The supernatants were transferred to a new tube or plate. Supernatants were diluted 10 times and 100 times with 100 mM buffer then analyzed by LC-MS/MS. SGF=simulated gastric fluid, SIF=simulated intestinal fluid, PBS=phosphate buffered saline pH 7.4 Values are noted in μM.

Data set [2] in a line: Plasma protein binding, equilibrium dialysis, mouse plasma. It is filed as in vitro ADME. Conditions: 5 hours at 37° C., read-out: PPB % bound Mouse (converted). Here is the method: as §1
A short description of data set [3]: Plasma protein binding, equilibrium dialysis, human plasma. It counts as in vitro ADME. Conditions: 5 hours at 37° C., read-out: PPB % bound Human (converted). The protocol:
as §1
A general note: In equilibrium dialysis free small molecules cross a membrane that holds back macromolecules.

A short description of data set [4]: Plasma protein binding, equilibrium dialysis, monkey plasma. Conditions: 5 hours at 37° C., read-out: PPB % bound Monkey (converted). It is filed as in vitro ADME. Here is the method:
as §1

Data set [5] in a line: Plasma protein binding, equilibrium dialysis, dog plasma. Conditions: 5 hours at 37° C., read-out: PPB % bound Dog (converted). It counts as in vitro ADME. Here is the method:
as §1

The subject of data set [6] is sumoylation levels (SUMO 2/3 conjugates) in HCT-116 cells. As to the kind of experiment: HCT-116 4 Hour Cell Assay (Western, SUMO 2/3 conjugates). It counts as cell-based. Conditions: Homo sapiens, HCT-116, 4 h, 4 h treatment, Anti-Sumo 2-3 immunoblot, read-out: HCT-116 Western 4 h IC50 (μM) Ave. The procedure, abridged:
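IC50 derived from fluorescent immunoblot quantification of SUMO 2/3 conjugate bands, normalized to total protein, after non-reducing SDS-PAGE. Lysis used RIPA plus NEM; exposure was 4 h across 11 concentrations, three-fold serial dilution starting at 25 μM.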
(In western blotting, separated proteins are transferred to a membrane and probed.)

Setting [7] is: PBS (phosphate buffered saline), aqueous buffer, phosphate buffered saline pH 7.4, 1% DMSO, read-out: Solubilities PBS.
Where [8] appears, read: simulated intestinal fluid (FaSSIF, pH 6.5), 1% DMSO, read-out: Solubilities SIF.

Each structure is given as a SMILES string. Converted amounts (≈) assume the structure as drawn. Like-named read-outs stand apart in the source and are kept apart here.

For `CCn1cc(-c2c(F)cccc2[C@@H]2CN(C(=O)/C=C/CNC)Cc3sc(C#N)cc32)c(C(F)(F)F)n1` [Example 50], the fraction unbound at 5 h, 1 μM is 0.062 in data set [1]; 0.039 in data set [2]; 0.033 in data set [3]; 0.064 in data set [4]; 0.02 in data set [5]. Further, the results for the solubility at 1 h in the data set “Solubility Evaluation” (setting [7]) and in “Solubility Evaluation” (setting [8]) were 30 µM (≈ 15.5 µg/mL) and 28 µM (≈ 14.5 µg/mL), respectively. The IC50 in data set [6] was found to be 0.157 µM.

For the compound `CCn1cc(-c2c(F)cccc2[C@@H]2CN(C(=O)/C=C/CN(C)C)Cc3sc(C#N)c(C)c32)c(C(F)(F)F)n1` [Example 46, (S, E)-6-(4-(dimethylamino)but-2-enoyl)-4-(2-(1-ethyl-3-(trifluoromethyl)-1 H-pyrazol-4-yl)-3-fluorophenyl)-3-methyl-4,5,6,7-tetrahydrothieno[2,3-c]pyridine-2-carbonitrile], the fraction unbound at 5 h, 1 μM in data set [1] is 0.021; in data set [2], 0.013; in data set [3] it was 0.028; in data set [4], 0.047; in data set [5], 0.008. The solubility at 1 h in the data set “Solubility Evaluation” (setting [7]) was 97 µM (≈ 52.9 µg/mL); in the data set “Solubility Evaluation” (setting [8]) it was > 100 µM. Further, the IC50 in data set [6] was determined as 0.0953 µM.

Take `C=CC(=O)N1Cc2sc(C#N)c(C)c2[C@H](c2cccc(F)c2-c2cn(CC)nc2C(F)(F)F)C1` [Compound 222]: the fraction unbound at 5 h, 1 μM in data set [1] was 0.004; in data set [2], 0.005; in data set [3], 0.008; in data set [4], 0.009; in data set [5], 0.001. Further, the solubility at 1 h in “Solubility Evaluation” (setting [7]) is 41 µM (≈ 20 µg/mL); in “Solubility Evaluation” (setting [8]), 29 µM (≈ 14.2 µg/mL). The 50% inhibitory concentration (IC50) in data set [6] was 0.0974 µM.
